Results reported in ChEMBL document CHEMBL1201862, “PubChem BioAssay data set” (2004).
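In this assay, cells in 96-well plates receive the compound at five concentrations for 48 hours. Endpoints are linearly interpolated between the surrounding concentrations. GI50 is the concentration that inhibits growth by half.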 Calls of active or inactive are those of the source. Rule as the data show it: active = GI50 up to about 1.1 µM and inactive = higher.

How the values were obtained:
Assay in all cases: DTP human tumour cell line panel, 48 h
ACHN = tested on: ACHN
DMS-114 = tested on: DMS-114
HCC 2998 = tested on: HCC 2998
HCT-116 = tested on: HCT-116
LOX IMVI = tested on: LOX IMVI
MOLT-4 = tested on: MOLT-4
Malme-3M = tested on: Malme-3M
NCI-H460 = tested on: NCI-H460
RPMI-8226 = tested on: RPMI-8226
SF-268 = tested on: SF-268
SF-295 = tested on: SF-295
SF-539 = tested on: SF-539
SK-OV-3 = tested on: SK-OV-3
SN12C = tested on: SN12C
SR = tested on: SR
SW-620 = tested on: SW-620
TK-10 = tested on: TK-10
UACC-62 = tested on: UACC-62

Measured: GI50

CCCCNC(=O)C1C2CCC(O2)C1C(=O)O (centres undefined)
inactive: ACHN 22.6 µM | DMS-114 13.9 µM | HCC 2998 26.2 µM | HCT-116 12 µM | LOX IMVI 16.5 µM | MOLT-4 18.1 µM | Malme-3M 21.5 µM | NCI-H460 41 µM | RPMI-8226 20.9 µM | SF-268 17.7 µM | SF-295 23.1 µM | SF-539 21 µM | SK-OV-3 23.1 µM | SN12C 14 µM | SR 18.8 µM | SW-620 1.71 µM | TK-10 18.1 µM | UACC-62 17.5 µM

COc1ccc(NC(=O)CC(=O)N/N=C/c2ccc(N(CCC#N)S(=O)(=O)c3ccccc3)cc2)cc1
inactive: ACHN > 100 µM | DMS-114 > 100 µM | HCC 2998 > 100 µM | HCT-116 > 100 µM | LOX IMVI > 100 µM | MOLT-4 > 100 µM | Malme-3M > 100 µM | NCI-H460 > 100 µM | RPMI-8226 > 100 µM | SF-268 > 100 µM | SF-295 > 100 µM | SK-OV-3 > 100 µM | SR > 100 µM | SW-620 > 100 µM | TK-10 > 100 µM | UACC-62 > 100 µM

COC(=O)CC(C(C(=O)OCc1ccccc1)C(C)O)N1C(=O)OC(c2ccccc2)C1c1ccccc1 (centres undefined)
inactive: ACHN > 100 µM | DMS-114 81.5 µM | HCC 2998 > 100 µM | HCT-116 > 100 µM | LOX IMVI > 100 µM | MOLT-4 44.2 µM | Malme-3M > 100 µM | NCI-H460 > 100 µM | RPMI-8226 62.7 µM | SF-268 > 100 µM | SF-295 64.6 µM | SF-539 > 100 µM | SN12C > 100 µM | SR 81.5 µM | SW-620 > 100 µM | TK-10 > 100 µM | UACC-62 52 µM

N=C(N)NS(=O)(=O)c1ccc(Nc2c3ccccc3nc3c(C(=O)N4CCN(CCO)CC4)cccc23)cc1
inactive: ACHN > 100 µM | DMS-114 > 100 µM | HCC 2998 > 100 µM | HCT-116 > 100 µM | LOX IMVI > 100 µM | MOLT-4 > 100 µM | Malme-3M > 100 µM | NCI-H460 > 100 µM | SF-268 > 100 µM | SF-295 > 100 µM | SF-539 > 100 µM | SK-OV-3 2.7 µM | SN12C > 100 µM | SR > 100 µM | SW-620 > 100 µM | TK-10 > 100 µM | UACC-62 > 100 µM

Cc1ccc(S(=O)(=O)c2c(N)c3nccn3c3nc4ccccc4nc23)cc1
inactive: ACHN 79.8 µM | DMS-114 > 100 µM | HCC 2998 > 100 µM | HCT-116 > 100 µM | LOX IMVI > 100 µM | MOLT-4 > 100 µM | Malme-3M > 100 µM | NCI-H460 > 100 µM | RPMI-8226 > 100 µM | SF-268 > 100 µM | SF-539 > 100 µM | SK-OV-3 > 100 µM | SN12C > 100 µM | SR > 100 µM | SW-620 > 100 µM | TK-10 69.8 µM | UACC-62 20.4 µM

CSc1nc2c(nc(N)n2C2OCC(O)C(O)C2O)c(=O)n1C (centres undefined)
inactive: ACHN > 100 µM | DMS-114 > 100 µM | HCC 2998 > 100 µM | HCT-116 > 100 µM | LOX IMVI > 100 µM | MOLT-4 > 100 µM | Malme-3M > 100 µM | NCI-H460 > 100 µM | SF-268 > 100 µM | SF-295 > 100 µM | SF-539 > 100 µM | SK-OV-3 > 100 µM | SN12C > 100 µM | SR > 100 µM | SW-620 > 100 µM | TK-10 > 100 µM | UACC-62 > 100 µM

O=C1CNNC(Cn2nc(-c3ccccc3)c3ccccc3c2=O)=N1
inactive: ACHN > 100 µM | DMS-114 > 100 µM | HCC 2998 > 100 µM | HCT-116 > 100 µM | MOLT-4 > 100 µM | Malme-3M > 100 µM | NCI-H460 > 100 µM | RPMI-8226 > 100 µM | SF-268 > 100 µM | SF-295 > 100 µM | SF-539 > 100 µM | SK-OV-3 > 100 µM | SN12C > 100 µM | SR > 100 µM | SW-620 > 100 µM | TK-10 > 100 µM | UACC-62 > 100 µM

O=C(Nc1cc(Cl)c(Cl)cc1Cl)C(=O)C(C(=O)c1ccc2ccccc2c1)C1OC(=O)c2ccccc21 (centres undefined)
inactive: ACHN 16.7 µM | DMS-114 9.2 µM | HCT-116 11 µM | LOX IMVI 15.5 µM | Malme-3M 13.2 µM | NCI-H460 10.4 µM | RPMI-8226 11.9 µM | SF-268 > 10 µM | SF-295 6.59 µM | SF-539 3.39 µM | SK-OV-3 60.4 µM | SN12C 18.2 µM | SR 4.66 µM | SW-620 10.8 µM | UACC-62 12.1 µM
